{"source": "patent EP4700019A1", "about": "“CRYSTAL FORM OF 1,5-DIHYDRO-2,4-BENZODIAZEPINE-3-ONE DERIVATIVE CITRATE, PREPARATION METHOD, AND USE THEREOF” (priority 2023, dated 2024)", "key": {"[1]": {"assay": "Stability test (high humidity, light, high temperature, high temperature stress; HPLC)", "type": "physicochemical", "protocol": "These samples were stored under two different conditions: (1) relative humidity of 92.5% at 25°C, and (2) relative humidity of 75% ± 1% at room temperature; The samples were maintained under these conditions for 10 days. Sampling was performed on day 0 and day 10, followed by HPLC analysis.\nHPLC analysis was performed on day 0 and day 10.\nSamples were collected and subjected to HPLC analysis."}, "[2]": {"type": "physicochemical", "details": "Water, 25°C ± 2°C", "protocol": "An appropriate amount of the test substance was accurately weighed And placed under conditions of 25°C ± 2°C. Different solvents were added in suitable quantities, and the mixture was vigorously shaken for 30 seconds every 5 minutes, and the dissolution status was observed over a period of 30 minutes. […]"}, "[3]": {"assay": "Pharmacokinetics and bioavailability test in beagle dogs (Test Example 3)", "type": "in vivo", "details": "for bioavailability: absolute oral bioavailability", "protocol": "Six healthy male beagle dogs were randomly divided into three groups, with two dogs in each group. […] Blood samples were collected from the forelimb vein of the dogs before and at various time points after administration. Plasma drug concentrations at different times were measured by LC-MS/MS. Pharmacokinetic parameters and the absolute oral bioavailability were calculated using WinNonlin7.0 software."}, "[4]": {"assay": "Stability test (high humidity, light, high temperature, high temperature stress; HPLC)", "type": "physicochemical", "remark": "listed apart in the source"}, "[5]": {"assay": "Pharmacokinetics and bioavailability test in beagle dogs (Test Example 4)", "type": "in vivo", "protocol": "Experimental method: Six healthy beagle dogs were randomly divided into two groups, with two dogs (one female and one male) in the first group, and four dogs (two females and two males) in the second group. […] Blood samples were collected from the forelimb veins of beagle dogs at various time points before and after administration. Plasma was obtained by centrifugation, and drug concentrations in plasma at different time points were measured using LC-MS/MS. Pharmacokinetic parameters and the absolute oral bioavailability were calculated using WinNonlin8.0 software."}, "5-HT2B receptors": {"biological_target": "5-HT2B receptors (Homo sapiens, UniProt P41595)", "sequence (P41595 whole entry)": "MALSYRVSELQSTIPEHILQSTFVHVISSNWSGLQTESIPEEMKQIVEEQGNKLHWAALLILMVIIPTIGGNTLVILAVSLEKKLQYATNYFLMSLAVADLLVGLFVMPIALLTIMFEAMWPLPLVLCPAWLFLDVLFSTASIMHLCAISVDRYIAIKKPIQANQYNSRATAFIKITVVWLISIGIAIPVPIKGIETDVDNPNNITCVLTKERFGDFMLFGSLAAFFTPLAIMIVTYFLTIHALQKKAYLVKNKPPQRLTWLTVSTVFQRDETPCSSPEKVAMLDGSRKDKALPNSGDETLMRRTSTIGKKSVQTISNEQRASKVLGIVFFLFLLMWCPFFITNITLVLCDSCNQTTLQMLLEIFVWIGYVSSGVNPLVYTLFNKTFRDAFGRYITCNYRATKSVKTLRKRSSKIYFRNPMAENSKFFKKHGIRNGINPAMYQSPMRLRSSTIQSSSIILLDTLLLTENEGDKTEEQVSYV", "details": "no significant affinity; cited from earlier work"}, "adrenergic receptors": {"biological_target": "adrenergic receptors", "details": "no significant affinity; cited from earlier work"}, "muscarinic receptors": {"biological_target": "muscarinic receptors", "details": "no significant affinity; cited from earlier work"}, "[6]": {"biological_target": "calcium channel receptors", "details": "no significant affinity; cited from earlier work"}, "[7]": {"biological_target": "dopamine receptors (including D2 receptors)", "details": "no significant affinity; cited from earlier work"}, "[8]": {"details": "75% High humidity for 10 days, room temperature"}, "[9]": {"details": "92.5% High humidity for 10 days, 25°C"}, "[10]": {"details": "PO 5 mg/kg (calculated as free base), capsules, male beagle dogs, plasma"}, "[11]": {"details": "High temperature of 40 °C for 10 days"}, "[12]": {"details": "High temperature of 60 °C for 10 days"}, "[13]": {"details": "High temperature of 105 °C for 1 day"}, "[14]": {"details": "Light exposure for 10 days (5000 lx ± 500 lx; UV 90 µW/cm^2)"}, "[15]": {"details": "PO 10 mg/kg (calculated based on free base), capsule"}, "[16]": {"details": "both sexes, dog, plasma, PO 10 mg/kg (calculated based on free base), capsule"}, "[17]": {"details": "IV 0.69 mg/kg (calculated based on free base)"}, "[18]": {"details": "dog, in vivo, IV 0.69 mg/kg (calculated based on free base)"}}, "note": "Where a name gives a salt, the structure may show the parent alone. Read-outs that look alike come from different tables or passages of the source.", "data": [{"smiles": "CN1CCC(N2Cc3cc(F)ccc3CN(Cc3ccc(OC4CC4)cc3)C2=O)CC1", "note": "[Base compound, 2-(4-cyclopropyloxybenzyl)-7-fluoro-4-(1-methylpiperidin-4-yl)-1,2,4-tetrahydro-3H-benzo[e][1,3]d iazepine-3-one]", "values": [{"measurement": "HPLC determination results of the stability", "setting": "[1]; [8]", "value": 97.643, "unit": "%"}, {"measurement": "HPLC determination results of the stability", "setting": "[1]; [9]", "value": 97.703, "unit": "%"}, {"measurement": "HPLC determination results of the stability", "setting": "[1]; original sample (0 day)", "value": 98.018, "unit": "%"}, {"measurement": "Conclusion (solubility)", "setting": "[2]", "value": "insoluble"}, {"measurement": "AUC0-last", "setting": "[3]; [10]", "value": 0.0439, "unit": "µg·h/mL"}, {"measurement": "Cmax", "setting": "[3]; [10]", "value": 0.0102, "unit": "µg/mL"}, {"measurement": "bioavailability", "setting": "[3]; PO 5 mg/kg (calculated as free base), capsules, male beagle dogs", "value": 2.4, "unit": "%"}, {"measurement": "HPLC determination results of the stability", "setting": "[4]; [11]", "value": 95.418, "unit": "%"}, {"measurement": "HPLC determination results of the stability", "setting": "[4]; [12]", "value": 82.682, "unit": "%"}, {"measurement": "HPLC determination results of the stability", "setting": "[4]; [13]", "value": 76.929, "unit": "%"}, {"measurement": "HPLC determination results of the stability", "setting": "[4]; [14]", "value": 95.604, "unit": "%"}]}, {"smiles": "CN1CCC(N2Cc3cc(F)ccc3CN(Cc3ccc(OC4CC4)cc3)C2=O)CC1.O=C(O)CC(O)(CC(=O)O)C(=O)O", "note": "[Crystalline form II, 2-(4-cyclopropyloxybenzyl)-7-fluoro-4-(1-methylpiperidin-4-yl)-1,2,4,5-tetrahydro-3H-benzo[e] [1,3]diazepine-3-one citrate]", "values": [{"measurement": "HPLC determination results of the stability", "setting": "[1]; [8]", "value": 99.749, "unit": "%"}, {"measurement": "HPLC determination results of the stability", "setting": "[1]; [9]", "value": 99.735, "unit": "%"}, {"measurement": "HPLC determination results of the stability", "setting": "[1]; original sample (0 day)", "value": 99.839, "unit": "%"}, {"measurement": "Conclusion (solubility)", "setting": "[2]; citrate", "value": "Very Slightly Soluble"}, {"measurement": "bioavailability", "setting": "[3]; dog, plasma, PO 5 mg/kg (calculated as free base), capsules, male beagle dogs, read-out: bioavailability", "value": 7.4, "unit": "%"}, {"measurement": "AUC(0-t)", "setting": "[3]; dog, PO 5 mg/kg (calculated as free base), capsules, male beagle dogs, plasma", "value": 0.139, "unit": "µg·h/mL"}, {"measurement": "Cmax", "setting": "[3]; dog, PO 5 mg/kg (calculated as free base), capsules, male beagle dogs, plasma, read-out: Cmax", "value": 0.0388, "unit": "µg/mL"}, {"measurement": "increase of bioavailability compared with the base compound", "setting": "[3]; oral solid dosage form, PO 5 mg/kg, beagle dogs", "value": "more than 3 times"}, {"measurement": "AUC_%Extrap", "setting": "[5]; [15]", "value": 2.12, "unit": "%"}, {"measurement": "MPT0-last", "setting": "[5]; [15]", "value": 6.62, "unit": "h"}, {"measurement": "Rsq_adj", "setting": "[5]; [15]", "value": 1.00}, {"measurement": "AUC(0-inf)", "setting": "[5]; [16]", "value": 6.4, "unit": "µg·h/mL"}, {"measurement": "AUC(0-t)", "setting": "[5]; [16]", "value": 6.28, "unit": "µg·h/mL"}, {"measurement": "Cmax", "setting": "[5]; [16]", "value": 0.754, "unit": "µg/mL"}, {"measurement": "Tmax", "setting": "[5]; [16]", "value": 2.25, "unit": "h"}, {"measurement": "half-life", "setting": "[5]; [16]", "value": 3.96, "unit": "h"}, {"measurement": "bioavailability", "setting": "[5]; both sexes, dog, plasma, PO 10 mg/kg (calculated based on free base), capsule, absolute oral bioavailability", "value": 94.8, "unit": "%"}, {"measurement": "HPLC determination results of the stability", "setting": "[4]; [11]", "value": 99.756, "unit": "%"}, {"measurement": "HPLC determination results of the stability", "setting": "[4]; [12]", "value": 99.723, "unit": "%"}, {"measurement": "HPLC determination results of the stability", "setting": "[4]; [13]", "value": 99.709, "unit": "%"}, {"measurement": "HPLC determination results of the stability", "setting": "[4]; [14]", "value": 99.762, "unit": "%"}]}, {"smiles": "CC(C)COc1ccc(CNC(=O)N(Cc2ccc(F)cc2)C2CCN(C)CC2)cc1", "note": "[Pimavanserin]", "values": [{"measurement": "Ki", "setting": "5-HT2B receptors", "value": "> 0.3", "unit": "µM"}, {"measurement": "Ki", "setting": "adrenergic receptors", "value": "> 0.3", "unit": "µM"}, {"measurement": "Ki", "setting": "muscarinic receptors", "value": "> 0.3", "unit": "µM"}, {"measurement": "Ki", "setting": "[6]", "value": "> 0.3", "unit": "µM"}, {"measurement": "Ki", "setting": "[7]", "value": "> 0.3", "unit": "µM"}]}, {"smiles": "CN1CCC(N2Cc3cc(F)ccc3CN(Cc3ccc(OC4CC4)cc3)C2=O)CC1", "note": "[citrate, 2-(4-cyclopropyloxybenzyl)-7-fluoro-4-(1-methylpiperidin-4-yl)-1,2,4-tetrahydro-3H-benzo[e][1 ,3]diazepine-3-one citrate]", "values": [{"measurement": "AUC(0-t)", "setting": "[3]; dog, in vivo, IV 1 mg/kg, male beagle dogs, plasma", "value": 0.348, "unit": "µg·h/mL"}, {"measurement": "Cmax", "setting": "[3]; dog, in vivo, IV 1 mg/kg, male beagle dogs, plasma, read-out: Cmax", "value": 0.138, "unit": "µg/mL"}, {"measurement": "AUC_%Extrap", "setting": "[5]; [17]", "value": 4.20, "unit": "%"}, {"measurement": "MPT0-last", "setting": "[5]; [17]", "value": 4.41, "unit": "h"}, {"measurement": "Rsq_adj", "setting": "[5]; [17]", "value": 1.00}, {"measurement": "AUC(0-inf)", "setting": "[5]; [18]", "value": 0.466, "unit": "µg·h/mL"}, {"measurement": "AUC(0-t)", "setting": "[5]; [18]", "value": 0.447, "unit": "µg·h/mL"}, {"measurement": "Cmax", "setting": "[5]; [18]", "value": 0.22, "unit": "µg/mL"}, {"measurement": "Tmax", "setting": "[5]; [18]", "value": 0.08, "unit": "h"}, {"measurement": "clearance", "setting": "[5]; [18]", "value": 1.48, "unit": "L/h/kg"}, {"measurement": "half-life", "setting": "[5]; [18]", "value": 2.2, "unit": "h"}, {"measurement": "Vd", "setting": "[5]; dog, in vivo, IV 0.69 mg/kg (calculated based on free base), read-out: Vdss", "value": 2.5, "unit": "L/kg"}]}]}
